Measurements from ChEMBL document CHEMBL1158005, “New 12a-hydroxyrotenoids from gliricidia sepium bark” (J Nat Prod, 1999).
Converted amounts (≈) assume the structure as drawn.

Test: Toxicity in Artemia salina larvae after 24 hrs
Format: organism-based
Conditions: in vivo

Row | Structure (SMILES) | LC50 at 24 h
1 | COc1ccc2c(c1)OC[C@H]1Oc3cc(O)ccc3C(c3cc([C@@H]4COc5cc(O)ccc5C4)ccc3OC)[C@@]21O (stereo partly drawn) [GLIRICIDIN] | 244 µg/mL (≈ 439 µM)
2 | COc1ccc2c(c1)OC[C@H]1Oc3cc(O)ccc3C(=O)[C@@]21O [GLIRICIDOL] | 50.7 µg/mL (≈ 161 µM)
3 | COc1cc2c(cc1OC)[C@]1(O)C(=O)c3ccc(O)cc3O[C@@H]1CO2 | 284 µg/mL (≈ 826 µM)
